Experimental data published in ChEMBL document CHEMBL1133545, “Inhibition of monoamine oxidases by functionalized coumarin derivatives: biological activities, QSARs, and 3D-QSARs” (J Med Chem, 2000).
pIC50: −log10 of the molar value.

What was measured:
[1] = biological target: T1, Amine oxidase [flavin-containing] A (Rattus norvegicus, UniProt P21396)
T1 sequence (P21396 whole entry): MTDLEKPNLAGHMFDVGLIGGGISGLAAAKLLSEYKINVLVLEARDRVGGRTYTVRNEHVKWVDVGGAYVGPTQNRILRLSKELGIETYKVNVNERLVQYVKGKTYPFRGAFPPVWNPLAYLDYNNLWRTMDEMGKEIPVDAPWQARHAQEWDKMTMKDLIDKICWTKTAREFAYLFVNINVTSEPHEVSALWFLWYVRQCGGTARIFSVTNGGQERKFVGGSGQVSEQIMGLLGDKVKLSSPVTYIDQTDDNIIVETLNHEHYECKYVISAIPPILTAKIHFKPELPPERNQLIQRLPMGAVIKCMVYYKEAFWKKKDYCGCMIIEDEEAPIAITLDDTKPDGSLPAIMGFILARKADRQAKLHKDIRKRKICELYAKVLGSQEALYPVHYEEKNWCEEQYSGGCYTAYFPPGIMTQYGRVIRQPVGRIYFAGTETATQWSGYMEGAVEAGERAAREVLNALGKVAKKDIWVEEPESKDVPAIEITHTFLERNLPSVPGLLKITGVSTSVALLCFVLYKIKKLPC

[2] = biological target: T2, Amine oxidase [flavin-containing] B (Rattus norvegicus, UniProt P19643)
T2 sequence (P19643 whole entry): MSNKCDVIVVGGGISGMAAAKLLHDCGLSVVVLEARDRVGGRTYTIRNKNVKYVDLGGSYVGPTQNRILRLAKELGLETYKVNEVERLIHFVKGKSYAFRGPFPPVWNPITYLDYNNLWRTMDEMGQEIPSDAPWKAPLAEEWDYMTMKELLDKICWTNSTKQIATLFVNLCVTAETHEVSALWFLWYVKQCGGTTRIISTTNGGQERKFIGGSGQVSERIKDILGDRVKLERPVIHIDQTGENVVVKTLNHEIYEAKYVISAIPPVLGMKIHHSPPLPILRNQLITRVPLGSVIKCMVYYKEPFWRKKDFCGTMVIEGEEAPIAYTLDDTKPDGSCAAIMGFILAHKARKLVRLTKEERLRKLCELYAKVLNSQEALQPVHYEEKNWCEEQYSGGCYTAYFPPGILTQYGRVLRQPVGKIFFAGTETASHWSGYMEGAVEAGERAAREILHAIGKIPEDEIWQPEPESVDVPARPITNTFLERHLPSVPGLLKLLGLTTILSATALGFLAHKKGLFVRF

[3] = biological target: T1, Amine oxidase [flavin-containing] A; remark: listed apart in the source
Description: Compound was tested for its inhibitory effect on Monoamine oxidase A at 15 uM

[4] = biological target: T2, Amine oxidase [flavin-containing] B; remark: listed apart in the source
[5] = biological target: T1, Amine oxidase [flavin-containing] A; remark: listed apart in the source
Description: Compound was tested for its inhibitory effect on Monoamine oxidase A at 1 uM

[6] = biological target: T1, Amine oxidase [flavin-containing] A; remark: listed apart in the source
Description: Compound was tested for its inhibitory effect on MAO-A ( Monoamine Oxidase) at 50 uM

[7] = biological target: T2, Amine oxidase [flavin-containing] B; remark: listed apart in the source
Description: Compound was tested for its inhibitory effect on MAO-B ( Monoamine Oxidase) at 4 uM

[8] = biological target: T1, Amine oxidase [flavin-containing] A; remark: listed apart in the source
Description: Compound was tested for its inhibitory effect on Monoamine oxidase A at 30 uM

[9] = biological target: T1, Amine oxidase [flavin-containing] A; remark: listed apart in the source
Description: Compound was tested for its inhibitory effect on Monoamine oxidase A at 20 uM)

[10] = biological target: T1, Amine oxidase [flavin-containing] A; remark: listed apart in the source
Description: Compound was tested for its inhibitory effect on Monoamine oxidase A at 3 uM

[11] = biological target: T2, Amine oxidase [flavin-containing] B; remark: listed apart in the source
Description: (§1) Compound was tested for its inhibitory effect on Monoamine oxidase B at 3 uM

[12] = biological target: T1, Amine oxidase [flavin-containing] A; remark: listed apart in the source
Description: Compound was tested for its inhibitory effect on Monoamine oxidase A at 50 uM

[13] = biological target: T1, Amine oxidase [flavin-containing] A; remark: listed apart in the source
Description: Compound was tested for its inhibitory effect on Monoamine oxidase A at 2 uM

[14] = biological target: T2, Amine oxidase [flavin-containing] B; remark: listed apart in the source
Description: as §1

[15] = biological target: T1, Amine oxidase [flavin-containing] A; remark: listed apart in the source
Description: Compound was tested for its inhibitory effect on Monoamine oxidase A at 8 uM

[16] = biological target: T2, Amine oxidase [flavin-containing] B; remark: listed apart in the source
Description: (§2) Compound was tested for its inhibitory effect on MAO-B ( Monoamine Oxidase) at 100 uM

[17] = biological target: T1, Amine oxidase [flavin-containing] A; remark: listed apart in the source
Description: (§3) Compound was tested for its inhibitory effect on MAO-A ( Monoamine Oxidase) at 100 uM

[18] = biological target: T1, Amine oxidase [flavin-containing] A; remark: listed apart in the source
Description: Compound was tested for its inhibitory effect on Monoamine oxidase A at 5 uM

[19] = biological target: T2, Amine oxidase [flavin-containing] B; remark: listed apart in the source
Description: Compound was tested for its inhibitory effect on Monoamine oxidase B at 40 uM

[20] = biological target: T2, Amine oxidase [flavin-containing] B; remark: listed apart in the source
Description: as §2

[21] = biological target: T1, Amine oxidase [flavin-containing] A; remark: listed apart in the source
Description: as §3

Row | SMILES | pIC50 [1] | pIC50 [2] | also measured
1 | Cc1c(C)c2ccc(OCCc3ccccc3)cc2oc1=O | 6.00 | – | –
2 | O=c1cc(O)c2ccc(OCc3ccccc3)cc2o1 | – | 5.80 | inhibition at 15 µM [3]: 26%
3 | O=c1cc(-c2ccccc2)oc2cc(OCc3ccccc3)ccc12 | – | – | inhibition at 1 µM [4]: 6%; inhibition at 1 µM [5]: 6%
4 | Cc1c(C)c2ccc(OCc3ccc(F)c(O)c3)cc2oc1=O | 6.94 | 8.13 | –
5 | COc1cc2ccc(=O)oc2cc1OCc1ccccc1 | – | 5.17 | inhibition at 50 µM [6]: 18%
6 | O=C1CCc2ccc(OCc3ccccc3)cc2O1 | – | – | inhibition at 4 µM [7]: 20%
7 | c1ccc(COc2ccc3c(c2)OCO3)cc1 | – | 5.62 | inhibition at 30 µM [8]: 18%
8 | O=c1ccoc2cc(OCc3ccccc3)ccc12 | 4.79 | 5.98 | –
9 | O=C1CCc2ccc(OCc3ccccc3)cc2N1 | 3.99 | 5.98 | –
10 | Cc1c(-c2ccccc2)c(=O)oc2cc(OCc3ccccc3)ccc12 | – | – | inhibition at 3 µM [10]: 4%; inhibition at 3 µM [11]: 8%
11 | c1ccc(COc2ccc3ccoc3c2)cc1 | – | 5.74 | inhibition at 50 µM [12]: 30%
12 | O=c1cc(-c2ccccc2)oc2ccc(OCc3ccccc3)cc12 | – | – | inhibition at 3 µM [14]: 38%
13 | O=c1ccc2cc(O[C@H]3O[C@H](CO)[C@@H](O)[C@@H](O)[C@@H]3O)c(OCc3ccccc3)cc2o1 | – | – | inhibition at 100 µM [16]: 11%; inhibition at 100 µM [17]: 15%
14 | O=c1ccoc2ccc(OCc3ccccc3)cc12 | 5.17 | 6.25 | –
15 | O=C1NC(=O)c2cc(OCc3ccccc3)ccc21 | – | – | inhibition at 5 µM [18]: 25%
16 | Cc1ccc(S(=O)(=O)Nc2ccc3c(C)c(C)c(=O)oc3c2)cc1 | 4.17 | – | inhibition at 40 µM [19]: 29%
17 | c1ccc(COc2ccc3c(c2)OCC3)cc1 | 4.40 | 6.30 | –
18 | O=c1ccc2cc(OCc3ccccc3)c(O)cc2o1 | 4.63 | 5.69 | –
19 | O=c1ccc2cc(O[C@@H]3O[C@H](CO)[C@@H](O)[C@H](O)[C@H]3O)c(O)cc2o1 [ESCULIN] | – | – | inhibition at 100 µM [20]: 7%; inhibition at 100 µM [21]: 9%

Continued, in another order:

Row | pIC50 [1] | pIC50 [2] | SMILES | also measured
20 | 4.66 | 6.90 | Cc1cc(=O)c2cc(OCc3ccccc3)ccc2o1 | –
21 | 5.44 | 6.63 | O=C1OCc2ccc(OCc3ccccc3)cc21 | –
22 | – | 4.23 | O=c1oc2cc(OCc3ccccc3)ccc2s1 | inhibition at 20 µM [9]: 0%
23 | – | 6.20 | CC1C(=O)Nc2cc(OCc3ccccc3)ccc2C1C (centres undefined) | inhibition at 2 µM [13]: 0%
24 | – | 5.86 | O=c1cc(C(F)(F)F)c2ccc(OCc3ccccc3)cc2o1 | –
25 | – | 5.59 | c1ccc(COc2ccc3ccccc3c2)cc1 | inhibition at 8 µM [15]: 0%
26 | 6.00 | 7.46 | Cc1c(C)c2ccc(OCc3cccc(N)c3)cc2oc1=O | –
27 | 5.45 | 6.49 | Cc1c(C)c2ccc(OC(C)c3ccccc3)cc2oc1=O (centres undefined) | –
28 | 6.39 | 7.55 | Cc1c(C)c2ccc(/C=C/c3ccccc3)cc2oc1=O | –
29 | 5.15 | – | CC(=O)Nc1cccc(COc2ccc3c(C)c(C)c(=O)oc3c2)c1 | –
30 | 4.39 | 4.92 | O=c1ccc2ccccc2o1 [COUMARIN] | –
